Here are results for three compounds from US10604554B2, “Double-acylated GLP-1 derivatives” (Novo Nordisk A/S, priority 2012, dated 2020).

The target in assay [1] is T1, human GLP-1 receptor (Homo sapiens, UniProt P43220).
T1 construct: expressed in transfected cells; host or cells: BHK cells, clone FCW467-12A/KZ10-1 (parent line BHKTS13), further transfected with CRE luciferase
In words: In vitro potency (CRE luciferase; whole cells). The class given is cell-based. Also on record: EC50/pM (ratio 1% HSA/0% HSA): unit not given here. As to conditions: for EC50: BHK cells; for EC50/pM (ratio 1% HSA/0% HSA): ratio of EC50 at 1% HSA to EC50 at 0% HSA. The protocol: The purpose of this example is to test the activity, or potency, of the GLP-1 derivatives in vitro. The in vitro potency is the measure of human GLP-1 receptor activation in a whole cell assay.
In vitro potency was determined by measuring the response of human GLP-1 receptor in a reporter gene assay. The assay was performed in a stably transfected BHK cell line that expresses the human GLP-1 receptor and contains the DNA for the cAMP response element (CRE) coupled to a promoter and the gene for firefly luciferase (CRE luciferase). When the human GLP-1 receptor was activated it results in the production of cAMP, which in turn results in the luciferase protein being expressed. When assay incubation was completed the luciferase substrate (luciferin) was added and the enzyme converts luciferin to oxyluciferin and produces bioluminescence. The luminescence was measured and was the readout for the assay.
An increase of the in vitro potency, EC50 value, in the presence of serum albumin indicates an affinity to serum albumin and represents a method to predict a protracted pharmacokinetic profile of the test substance in animal models.
The cells were cultured at 5% CO2 in cell culture medium. They were aliquoted and stored in liquid nitrogen. Before each assay an aliquot was taken up and washed twice in PBS before being suspended at the desired concentration in the assay specific buffer.
The following chemicals were used in the assay: Pluronic F-68 (10%) (Gibco 2404), human serum albumin (HSA) (Sigma A9511), ovalbumin (Sigma A5503), DMEM w/o phenol red (Gibco 11880-028), 1 M Hepes (Gibco 15630), Glutamax 100× (Gibco 35050) and steadylite plus (PerkinElmer 6016757).
1) Cell stocks were thawed in a 37° C. water bath.
2) Cells were washed three times in PBS.
3) The cells were counted and adjusted to 5×10^3 cells/50 μl (1×10^5 cells/ml) in assay medium. A 50 μl aliquot of cells was transferred to each well in the assay plate.
4) Stocks of the test compounds and reference compounds were diluted to a concentration of 0.2 μM in 0% assay buffer for the 0% HSA CRE luciferase assay and 1% assay buffer for the HSA CRE luciferase assay. […] 5) A 50 μl aliquot of compound or blank was transferred in triplicate from the dilution plate to the assay plate. […] 7) The assay plate was removed from the incubator and allowed to stand at room temperature for 15 min. 8) A 100 μl aliquot of steadylite plus reagent was added to each well of the assay plate (reagent was light sensitive). 9) Each assay plate was covered with aluminum foil to protect it from light and shaken for 30 min at room temperature. 10) Each assay plate was read in a Packard TopCount NXT instrument. Calculations and Results
The data from the TopCount instrument were transferred to GraphPad Prism software. The software averages the values for each replicate and performs a non-linear regression.

For assay [2], the target named is T1, human GLP-1 receptor. In words: GLP-1 receptor binding (SPA, displacement of 125I-GLP-1). As to the method:
The purpose of this experiment is to investigate the binding to the GLP-1 receptor of the GLP-1 derivatives, and how the binding is potentially influenced by the presence of albumin. This is done in an in vitro experiment as described below.
In order to test the binding of the derivatives to albumin, the assay was performed with a low concentration of albumin (0.001%—corresponding to the residual amount thereof in the tracer), as well as with a high concentration of albumin (2.0% added). A shift in the binding affinity, IC50, is an indication that the peptide in question binds to albumin, and thereby a prediction of a potential protracted pharmacokinetic profile of the peptide in question in animal models.
Species (in vitro): Hamster
Biological End Point: Receptor Binding
A stable transfected cell line and a high expressing clone were selected for screening. The cells were grown at 5% CO2 in DMEM, 10% FCS, 1% Pen/Strep (Penicillin/Streptomycin) and 1.0 mg/ml of the selection marker G418.
The cells (approx. 80% confluence) were washed twice in PBS and harvested with Versene (aqueous solution of the tetrasodium salt of ethylenediaminetetraacetic acid), following which they were separated by centrifugation at 1000 rpm for 5 min. The cells/cell pellet must be kept on ice to the extent possible in the subsequent steps. The cell pellet was homogenised with Ultrathurrax for 20-30 seconds in a suitable amount of Buffer 1 (depending on the amount of cells, but e.g. 10 ml). The homogenate was centrifuged at 20000 rpm for 15 minutes. The pellet was resuspended (homogenised) in 10 ml Buffer 2 and re-centrifuged. This step was repeated once more. The resulting pellet was resuspended in Buffer 2, and the protein concentration was determined. The membranes were stored at minus 80° C.
Buffer 1:20 mM Na-HEPES+10 mM EDTA, pH 7.4
Buffer 2:20 mM Na-HEPES+0.1 mM EDTA, pH 7.4
Test compounds, membranes, SPA-particles and [^125I]-GLP-1(7-36)NH2 were diluted in assay buffer. 50 ul (micro liter) HSA (“high albumin” experiment containing 2% HSA), or buffer (“low albumin” experiment containing 0.001% HSA) was added to Optiplate, and 25 ul of test compounds were added. 5-10 ug membrane protein/sample was added (50 ul) corresponding to 0.1-0.2 mg protein/ml (to be preferably optimised for each membrane preparation). SPA-particles (Wheatgerm agglutinin SPA beads, Perkin Elmer, # RPNQ0001) were added in an amount of 0.5 mg/well (50 ul). The incubation was started with [^125I]-GLP-1]-(7-36)NH2 (final concentration 0.06 nM corresponding to 49.880 DPM, 25 ul). The plates were sealed with PlateSealer and incubated for 120 minutes at 30° C. while shaking. The plates were centrifuged (1500 rpm, 10 min) and counted in Topcounter.
Background: Displacement assays read how much labelled ligand stays bound in the presence of the test substance.

[3] abbreviates: In vitro potency (CRE luciferase) EC50 (0% HSA), 0% HSA.
Where [4] appears, read: In vitro potency (CRE luciferase) EC50 (1% HSA), 1% HSA.
[5] abbreviates: Receptor binding affinity IC50 (high HSA), 2.0% HSA (high albumin).
The mark [6] stands for this setting: Receptor binding affinity IC50 (low HSA), 0.001% HSA (low albumin).

The term EC50 denotes the concentration giving half of the maximal effect. By IC50 is commonly meant the point on the concentration scale where inhibition reaches its midpoint.

T1 sequence (P43220 24-463): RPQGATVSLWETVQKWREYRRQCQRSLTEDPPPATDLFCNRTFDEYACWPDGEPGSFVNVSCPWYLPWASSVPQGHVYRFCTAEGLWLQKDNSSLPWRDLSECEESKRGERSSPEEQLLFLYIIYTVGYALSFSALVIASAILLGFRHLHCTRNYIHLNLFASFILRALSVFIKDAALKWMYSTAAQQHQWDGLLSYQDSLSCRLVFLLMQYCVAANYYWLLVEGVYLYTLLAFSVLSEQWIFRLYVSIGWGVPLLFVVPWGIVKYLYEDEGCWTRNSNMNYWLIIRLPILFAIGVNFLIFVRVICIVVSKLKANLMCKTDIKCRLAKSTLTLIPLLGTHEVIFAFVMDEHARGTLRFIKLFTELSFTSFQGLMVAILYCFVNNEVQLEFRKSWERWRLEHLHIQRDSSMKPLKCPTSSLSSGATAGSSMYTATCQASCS

As for `CC[C@H](C)[C@H](NC(=O)[C@H](Cc1ccccc1)NC(=O)[C@H](CCC(=O)O)NC(=O)[C@H](CCCCNC(=O)[C@@H](N)CCCCNC(=O)CC[C@H](NC(=O)CC[C@H](NC(=O)CC[C@H](NC(=O)CCCCCCCCCCOc1ccc(C(=O)O)cc1)C(=O)O)C(=O)O)C(=O)O)NC(=O)[C@H](C)NC(=O)[C@H](C)NC(=O)[C@H](CCC(N)=O)NC(=O)CNC(=O)[C@H](CCC(=O)O)NC(=O)[C@H](CC(C)C)NC(=O)[C@H](Cc1ccc(O)cc1)NC(=O)[C@H](CO)NC(=O)[C@H](CO)NC(=O)[C@@H](NC(=O)[C@H](CC(=O)O)NC(=O)[C@H](CO)NC(=O)[C@@H](NC(=O)[C@H](Cc1ccccc1)NC(=O)[C@@H](NC(=O)CNC(=O)[C@H](CCC(=O)O)NC(=O)C(C)(C)NC(=O)[C@@H](N)Cc1c[nH]cn1)[C@@H](C)O)[C@@H](C)O)C(C)C)C(=O)N[C@@H](C)C(=O)N[C@@H](Cc1c[nH]c2ccccc12)C(=O)N[C@@H](CC(C)C)C(=O)N[C@H](C(=O)N[C@@H](CCCNC(=N)N)C(=O)NCC(=O)N[C@@H](CCCNC(=N)N)C(=O)N[C@@H](CCCCNC(=O)[C@@H](N)CCCCNC(=O)CC[C@H](NC(=O)CC[C@H](NC(=O)CC[C@H](NC(=O)CCCCCCCCCCOc1ccc(C(=O)O)cc1)C(=O)O)C(=O)O)C(=O)O)C(=O)O)C(C)C` [Example 39, N^ε26-[(2S)-2-amino-6-[[(4S)-4-carboxy-4-[[(4S)-4-carboxy-4-[[(4S)-4-carboxy-4-[11-(4-carboxyphenoxy)undecanoylamino]butanoyl]amino]butanoyl]amino]butanoyl]amino]hexanoyl], N^ε37-[(2S)-2-amino-6-[[(4S)-4-carboxy-4-[[(4S)-4-carboxy-4-[[(4S)-4-carboxy-4-[11-(4-carboxyphenoxy)undecanoylamino]butanoyl]amino]butanoyl]amino]butanoyl]amino]hexanoyl]-[Aib^8,Arg^34,Lys^37]-GLP-1-(7-37)-peptide], the EC50 at human GLP-1 receptor [1] (setting [3]) worked out at 3.7 pM; at human GLP-1 receptor [1] (setting [4]), 140 pM. The “EC50/pM (ratio 1% HSA/0% HSA)” value at human GLP-1 receptor [1] amounted to 38. The IC50 stood at 131000 pM at human GLP-1 receptor [2] (setting [5]) and 60 pM on human GLP-1 receptor [2] (setting [6]).

As for `CC[C@H](C)[C@H](NC(=O)[C@H](Cc1ccccc1)NC(=O)[C@H](CCC(=O)O)NC(=O)[C@H](CCCCNC(=O)[C@@H](N)CCCCNC(=O)CC[C@H](NC(=O)CC[C@H](NC(=O)CC[C@H](NC(=O)CCCCCCCCCOc1ccc(C(=O)O)cc1)C(=O)O)C(=O)O)C(=O)O)NC(=O)[C@H](C)NC(=O)[C@H](C)NC(=O)[C@H](CCC(N)=O)NC(=O)CNC(=O)[C@H](CCC(=O)O)NC(=O)[C@H](CC(C)C)NC(=O)[C@H](Cc1ccc(O)cc1)NC(=O)[C@H](CO)NC(=O)[C@H](CO)NC(=O)[C@@H](NC(=O)[C@H](CC(=O)O)NC(=O)[C@H](CO)NC(=O)[C@@H](NC(=O)[C@H](Cc1ccccc1)NC(=O)[C@@H](NC(=O)CNC(=O)[C@H](CCC(=O)O)NC(=O)C(C)(C)NC(=O)[C@@H](N)Cc1c[nH]cn1)[C@@H](C)O)[C@@H](C)O)C(C)C)C(=O)N[C@@H](C)C(=O)N[C@@H](Cc1c[nH]c2ccccc12)C(=O)N[C@@H](CC(C)C)C(=O)N[C@H](C(=O)N[C@@H](CCCNC(=N)N)C(=O)NCC(=O)N[C@@H](CCCNC(=N)N)C(=O)N[C@@H](CCCCNC(=O)[C@@H](N)CCCCNC(=O)CC[C@H](NC(=O)CC[C@H](NC(=O)CC[C@H](NC(=O)CCCCCCCCCOc1ccc(C(=O)O)cc1)C(=O)O)C(=O)O)C(=O)O)C(=O)O)C(C)C` [Example 8, N^ε26-[(2S)-2-amino-6-[[(4S)-4-carboxy-4-[[(4S)-4-carboxy-4-[[(4S)-4-carboxy-4-[10-(4-carboxyphenoxy)decanoylamino]butanoyl]amino]butanoyl]amino]butanoyl]amino]hexanoyl], N^ε37-[(2S)-2-amino-6-[[(4S)-4-carboxy-4-[[(4S)-4-carboxy-4-[[(4S)-4-carboxy-4-[10-(4-carboxyphenoxy)decanoylamino]butanoyl]amino]butanoyl]amino]butanoyl]amino]hexanoyl]-[Aib^8,Arg^34,Lys^37]-GLP-1-(7-37)-peptide], the 50% effective concentration (EC50) at human GLP-1 receptor [1] (setting [3]) was found to be 2.6 pM; at human GLP-1 receptor [1] (setting [4]) it was 45 pM. The half-maximal inhibitory concentration (IC50) on human GLP-1 receptor [2] (setting [5]) amounted to 269000 pM; on human GLP-1 receptor [2] (setting [6]), 680 pM.

For the compound `CC[C@H](C)[C@H](NC(=O)[C@H](Cc1ccccc1)NC(=O)[C@H](CCC(=O)O)NC(=O)[C@H](CCCCNC(=O)[C@@H](N)CCCCNC(=O)[C@@H](N)CCCCNC(=O)CC[C@H](NC(=O)CCCCCCCCCCCCC(=O)O)C(=O)O)NC(=O)[C@H](C)NC(=O)[C@H](C)NC(=O)[C@H](CCC(N)=O)NC(=O)CNC(=O)[C@H](CCC(=O)O)NC(=O)[C@H](CC(C)C)NC(=O)[C@H](Cc1ccc(O)cc1)NC(=O)[C@H](CO)NC(=O)[C@H](CO)NC(=O)[C@@H](NC(=O)[C@H](CC(=O)O)NC(=O)[C@H](CO)NC(=O)[C@@H](NC(=O)[C@H](Cc1ccccc1)NC(=O)[C@@H](NC(=O)CNC(=O)[C@H](CCC(=O)O)NC(=O)C(C)(C)NC(=O)[C@@H](N)Cc1c[nH]cn1)[C@@H](C)O)[C@@H](C)O)C(C)C)C(=O)N[C@@H](C)C(=O)N[C@@H](Cc1c[nH]c2ccccc12)C(=O)N[C@@H](CC(C)C)C(=O)N[C@H](C(=O)N[C@@H](Cc1c[nH]cn1)C(=O)NCC(=O)N[C@@H](CCCNC(=N)N)C(=O)N[C@@H](CCCCNC(=O)[C@@H](N)CCCCNC(=O)[C@@H](N)CCCCNC(=O)CC[C@H](NC(=O)CCCCCCCCCCCCC(=O)O)C(=O)O)C(=O)O)C(C)C` [Example 3, N^ε26-[(2S)-2-amino-6-[[(2S)-2-amino-6-[[(4S)-4-carboxy-4-(13-carboxytridecanoylamino)butanoyl]amino]hexanoyl]amino]hexanoyl], N^ε37-[(2S)-2-amino-6-[[(2S)-2-amino-6-[[(4S)-4-carboxy-4-(13-carboxytridecanoylamino)butanoyl]amino]hexanoyl]amino]hexanoyl]-[Aib^8,His^34,Lys^37]-GLP-1-(7-37)-peptide], the EC50 at human GLP-1 receptor [1] (setting [4]) was determined as 80 pM. Further, on human GLP-1 receptor [1], the “EC50/pM (ratio 1% HSA/0% HSA)” value came out at 10.3.
